Experimental data published in patent publication US12496302B2, “Compositions and methods for the treatment and diagnosis of cancer” (The General Hospital Corporation, priority 2020, dated 2025).
Entries after “also recorded” stand apart in the source; their conditions may differ.

Experiments:
Type in all cases: cell-based
TRDMT1 = molecular target: T1, TRDMT1 (Homo sapiens, UniProt O14717); assay: m^5C staining at TA-KR DNA damage sites in cells treated with YW-1842
T1 construct: SCE WT cells were transfected with TA-KR and were cultured with 2.5 μM/L, compound YW-1842 or not for 6 hours; endogenous in cells; host or cells: SCE WT cells (U2OS-TRE type) transfected with TA-KR only
T1 sequence (O14717 1-391): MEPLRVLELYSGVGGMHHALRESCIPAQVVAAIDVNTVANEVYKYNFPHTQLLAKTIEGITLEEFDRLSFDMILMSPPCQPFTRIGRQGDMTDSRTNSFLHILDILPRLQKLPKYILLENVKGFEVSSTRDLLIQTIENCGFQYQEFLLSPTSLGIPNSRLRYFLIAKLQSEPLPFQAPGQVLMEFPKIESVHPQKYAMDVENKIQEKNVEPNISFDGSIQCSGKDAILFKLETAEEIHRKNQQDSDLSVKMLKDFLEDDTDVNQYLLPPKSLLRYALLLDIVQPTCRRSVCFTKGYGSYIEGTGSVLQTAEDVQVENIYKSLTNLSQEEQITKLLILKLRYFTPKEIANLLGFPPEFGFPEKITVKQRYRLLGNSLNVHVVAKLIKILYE
Experimental: (§1) FIGS. 6A-6E show TRDMT1 Inhibitors specifically sensitizes cells to DNA damage agents. (FIG. 6A) SCE WT cells were transfected with TA-KR and were cultured with 2.5 μM/L, compound YW-1842 or not for 6 hours, m^5C (n=3, 50 cells per replicated, Mean±SD) was stained and quantified. DR-GFP (FIG. 6B) or EJ5-GFP (FIG. 6C) cells were pre-treated with 2.5 μM/L, compound YW-1842 for 6 h or TRDMT1 siRNA for 48 h, or DMSO. Then the cells were transfected with NLS-I-SceI plasmid to induce DSB. The efficiency of HR (FIG. 6B) or NHEJ (FIG. 6C) was analyzed by flow-cytometry (n=3, Mean±SD). (FIG. 6D) After seeding, MCF-7, HCC1954, and HCC1937 cells were pre-treated with or without 2.5 μM/L compound YW-1842 for 6 h, then cultured with chemotherapy drugs (1 μM/L, Cisplatin; 1 μM/L ATRi AZ20; 10 μM/L, ATMi KU55933; 1 μM/L, PARPi Olaparib for 10 days. The survival rate of these cells was analyzed (n=3, Mean±SD). (FIG. 6E) TRDMT1 KO U2OS cells were transfected with GFP-TRDMT1^WT or GFP-TRDMT1^G155V with or without 2.5 μM/L, compound YW-1842, the survival rate of these cells after IR or Cisplatin was shown (n=3, Mean±SD).
The Olympus FV1000 confocal microscopy system (Cat. F10PRDMYR-1, Olympus) and FV1000 software were used for the acquisition of images. Cells were cultured in 35 mm glass-bottom dishes (MatTek, P35GC-1.5-14-C) before observation. Activation of KR in bulky cells was completed by exposing cells to a 15 W Sylvania cool white fluorescent bulb for 25 min in a stage UVP (Uvland, CA). The intensity was measured by ImageJ 1.52i software.
For m^5C staining using the heat method, the cells or tissues were fixed and permeabilized in a 35 mm glass-bottom dish using a standard protocol, incubated in buffer (10 mM Tris-HCl, 2 mM EDTA, pH=9) and steamed on a 95° C. heating block for 20 min to expose the antigen. The dish was cooled, washed 3 times with PBS and blocked using 5% BSA in 0.1% PBST for 0.5 h at room temperature. Primary antibody for m^5C (33D3, ab10805, Abcam) and secondary antibody were diluted in the same buffer (5% BSA in 0.1% PBST) and followed the standard IF protocol. […]

U2OS or MCF7 cells = assay: Cell survival of U2OS or MCF7 cells treated with YW-1842 alone
Experimental: FIGS. 6F-6G show TRDMT1 inhibitor YW-1842 delays the repair of DSBs at the transcribed genome. (FIG. 6F) U2OS or MCF7 cells were treated with or without compound YW-1842 at the indicated concentration. The survival rate of these cells was shown (n=3, Mean±SD). (FIG. 6G) SCE WT cells were transfected with TA-KR and were cultured with 2.5 μM YW-1842 or not for 6 hours, γ-H2AX (n=3, 50 cells per replicated, Mean±SD) were stained and quantified.
(§2) Approximately 500 U2OS/TRDMT1 KO U2OS/MCF-7/HCC1954/HCC1937 cells and TRDMT1 siRNA or GFP-TRDMT1 WT/G155V/K251R transfected cells were seeded in 6 cm dish with or without TRDMT1 inhibitors (2.5 μM/L). 6 hrs after seeding, cells were exposed to cisplatin (1134357, Sigma, 1 μM/L), ATMi (KU55933, C9867, Sigma, 10 μM/L), ATRi (AZ20, S7050, Selleck, 1 μM/L) or PARPi (Olaparib, AZD2461, Sigma, 1 μM/L) at indicated concentration or ionizing radiation (IR). After 7-14 days, colonies were fixed and stained with 0.3% crystal violet in methanol, and the number of colonies was counted manually.

TRDMT1 KO U2OS cells = assay: Cell survival after IR or Cisplatin in TRDMT1 KO U2OS cells with or without YW-1842; details: 2.5 μM/L
Experimental: as §1
Approximately 500 U2OS/TRDMT1 KO U2OS/MCF-7/HCC1954/HCC1937 cells and TRDMT1 siRNA or GFP-TRDMT1 WT/G155V/K251R transfected cells were seeded in 6 cm dish with or without TRDMT1 inhibitors (2.5 μM/L). […]

[1] = system: MCF-7, HCC1954, and HCC1937 cells; assay: Cell survival assay, YW-1842 combined with DNA damaging agents, IR or H2O2
Experimental: as §1
MCF-7, HCC1954, and HCC1937 cells were pre-treated with or without TRDMT1 inhibitor YW-1842 (2.5 μM) for 6 hrs, then the cells were exposed to IR or H2O2, and cultured for 7-14 days. The survival rate of these cells was analyzed (n=3, Mean±SD)
as §2

U2OS (DR-GFP) cells = assay: DR-GFP HR reporter assay; details: 2.5 μM/L for 6 h, in comparison with DMSO treated group
Experimental: as §1
Using a previously described method[Lan, L. et al. The ACF1 complex is required for DNA double-strand break repair in human cells. […] The GFP signal arising from the recombination (HR) or non-homologous end joining (NHEJ) events were measured by flow cytometry.

Structure (SMILES): COc1cc2nc(-n3cc(-c4ccc(S(C)(=O)=O)cc4)cn3)nc(-c3ccsc3)c2cc1OC [YW-1842, 6,7-dimethoxy-2-(4-(4-(methylsulfonyl)phenyl)-1H-pyrazol-1-yl)-4-(thiophen-3-yl)quinazoline]
- TRDMT1 inhibition (overall statement) (TRDMT1): potent inhibitor for TRDMT1; also recorded: high inhibitory activity
- inhibiting TRDMT1 recruitment, m^5C formation and HR efficiency at DNA damage sites (TRDMT1): performed well
- m^5C inhibitory activity (TRDMT1; 2.5 μM/L, 6 hours, cells transfected with TA-KR): almost equivalent to TRDMT1 depletion
- cell killing by compound alone (U2OS or MCF7 cells; 2.5 μM/L): does not kill cells alone
- antiproliferative effect (cell proliferation) (U2OS or MCF7 cells; concentration below 5 μM/L): did not prohibit cell proliferation
- sensitization of TRDMT1 KO cells to IR or Cisplatin (TRDMT1 KO U2OS cells): does not sensitize TRDMT1 KO
- survival rate in combination with H2O2 compared to DMSO ([1]; 2.5 μM, combined with H2O2): decreased the survival rate of all the three cell lines
- sensitivity to IR in combination ([1]; 2.5 μM, combined with IR): clear sensitivity enhancement
- sensitization to DNA damaging agents (Cisplatin, ATRi AZ20, ATMi KU55933, PARPi Olaparib) compared to single treatment ([1]; 2.5 μM/L pre-treatment 6 h): sensitizes the cells
- synergy with PARPi Olaparib ([1]; YW-1842 2.5 μM, Olaparib 1 μM, HCC 1954 cell lines): strong synergy
- HR-mediated repair of I-SceI-generated DSBs (U2OS (DR-GFP) cells): diminished the repair of I-SceI-generated DSBs
